Source: patent publication US20100227853A1, “INHIBITORS OF CYCLIC AMP PHOSPHODIESTERASES” (Trustees of Boston College, priority 2008, published 2010)

How the values were obtained:
PDE2A [1] = target: T1, PDE2A (Mus musculus, UniProt Q922S4); assay: cAMP levels in yeast strain expressing PDE2A; type: cell-based, murine; details: 20 μM EHNA as compared to 200 μM
T1 construct: targets used in the assays are full-length proteins (as opposed to simply the catalytic domain); expressed in transfected cells; host or cells: Schizosaccharomyces pombe, PDE gene integrated in place of cgs2 (strains LWP371, LWP364)
T1 sequence (Q922S4 1-939): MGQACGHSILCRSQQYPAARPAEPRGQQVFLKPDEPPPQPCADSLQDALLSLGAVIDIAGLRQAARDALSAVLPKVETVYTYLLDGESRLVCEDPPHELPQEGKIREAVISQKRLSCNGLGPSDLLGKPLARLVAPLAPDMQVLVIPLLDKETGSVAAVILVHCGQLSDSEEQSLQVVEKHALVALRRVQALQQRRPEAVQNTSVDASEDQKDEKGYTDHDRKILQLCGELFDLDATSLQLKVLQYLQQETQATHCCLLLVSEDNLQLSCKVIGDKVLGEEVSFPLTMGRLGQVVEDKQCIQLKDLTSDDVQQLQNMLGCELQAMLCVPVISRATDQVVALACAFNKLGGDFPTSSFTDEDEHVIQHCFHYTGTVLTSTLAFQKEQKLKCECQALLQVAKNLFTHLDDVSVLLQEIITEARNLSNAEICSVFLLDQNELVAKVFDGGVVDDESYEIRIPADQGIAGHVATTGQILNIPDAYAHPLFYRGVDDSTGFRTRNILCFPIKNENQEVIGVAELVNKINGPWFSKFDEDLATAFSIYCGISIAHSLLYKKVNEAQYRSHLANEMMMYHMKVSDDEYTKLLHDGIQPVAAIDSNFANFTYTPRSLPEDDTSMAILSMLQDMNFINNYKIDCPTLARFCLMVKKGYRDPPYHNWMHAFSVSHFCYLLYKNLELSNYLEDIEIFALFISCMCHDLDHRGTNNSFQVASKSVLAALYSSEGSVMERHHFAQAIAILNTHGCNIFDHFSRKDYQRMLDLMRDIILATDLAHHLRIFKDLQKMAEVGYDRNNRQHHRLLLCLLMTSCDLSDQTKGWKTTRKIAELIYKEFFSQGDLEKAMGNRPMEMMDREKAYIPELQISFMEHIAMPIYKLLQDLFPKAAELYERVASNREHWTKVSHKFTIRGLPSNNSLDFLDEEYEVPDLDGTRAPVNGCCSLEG
Procedure: (§1) Values represent the average and SD of two or three independent experiments. […] The strains used are as in FIG. 5A, together with strain CHP1141 (PDE8A). Values represent the average and SD of two or three independent experiments.
(§2) β-galactosidase assays and characterization of 5FOA-sensitivity were carried out as previously described^10. cAMP assays were performed on exponential phase cells grown in EMM complete medium (3% glucose), using the Assay Designs cAMP EIA kit, according to manufacturer's instructions (Assay Designs, Ann arbor, Mich.).
(§3) Thus, PDE inhibition can be indirectly quantitated by measuring the effect of a compound on cAMP levels in target yeast strains.

PDE2A [2] = target: T1, PDE2A; assay: fbp1-lacZ β-galactosidase reporter assay, PDE2A strain; type: cell-based, murine; details: strain LWP367 (PDE2A)
Procedure: as §2
(§4) The effect of known PDE inhibitors on the expression of the fbp1-lacZ fusion in murine PDE-expressing strains was tested. […] For Table 4 β-galactosidase activity was determined from 3 to 4 independent exponential phase cultures. The average±SD represents specific activity per milligram of soluble protein.

PDE8A [3] = target: T2, PDE8A (Mus musculus, UniProt O88502); assay: cAMP levels in yeast strain expressing PDE8A; type: cell-based, murine; details: rolipram treatment
T2 construct: targets used in the assays are full-length proteins (as opposed to simply the catalytic domain); expressed in transfected cells; host or cells: Schizosaccharomyces pombe, PDE gene integrated in place of cgs2 (strains CHP1141, DDP13)
T2 sequence (O88502 1-823): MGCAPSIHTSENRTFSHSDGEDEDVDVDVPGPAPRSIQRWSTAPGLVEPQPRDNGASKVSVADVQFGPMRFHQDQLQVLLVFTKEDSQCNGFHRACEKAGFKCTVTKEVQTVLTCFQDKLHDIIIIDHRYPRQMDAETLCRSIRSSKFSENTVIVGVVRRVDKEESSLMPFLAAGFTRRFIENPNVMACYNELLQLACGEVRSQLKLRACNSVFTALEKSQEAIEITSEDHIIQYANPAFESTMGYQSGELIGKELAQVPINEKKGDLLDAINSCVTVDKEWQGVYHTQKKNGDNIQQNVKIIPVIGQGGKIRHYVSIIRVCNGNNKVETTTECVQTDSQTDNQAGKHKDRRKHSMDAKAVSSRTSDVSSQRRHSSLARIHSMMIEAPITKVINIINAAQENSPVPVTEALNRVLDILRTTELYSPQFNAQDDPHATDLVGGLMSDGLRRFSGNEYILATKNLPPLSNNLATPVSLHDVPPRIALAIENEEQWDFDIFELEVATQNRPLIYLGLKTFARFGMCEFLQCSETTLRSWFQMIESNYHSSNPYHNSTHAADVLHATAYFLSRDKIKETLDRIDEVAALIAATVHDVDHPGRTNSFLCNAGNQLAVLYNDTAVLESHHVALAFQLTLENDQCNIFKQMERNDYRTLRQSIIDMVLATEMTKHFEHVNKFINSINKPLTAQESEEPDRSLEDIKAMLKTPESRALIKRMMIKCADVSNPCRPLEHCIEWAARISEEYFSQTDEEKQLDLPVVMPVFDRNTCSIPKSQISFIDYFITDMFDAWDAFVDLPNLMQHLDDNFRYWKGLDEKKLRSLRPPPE
Procedure: as §1, §2, §3

U937 cells = assay: TNF alpha release by LPS-treated U937 cells; type: cell-based
PDE7A = PDE7A (Homo sapiens, UniProt Q13946); assay: 5FOA growth assay in fission yeast strain expressing PDE7A; type: cell-based; parameters: targets used in the assays are full-length proteins (as opposed to simply the catalytic domain); expressed in transfected cells; host or cells: Schizosaccharomyces pombe, PDE gene integrated in place of cgs2; details: OD600 0.6; read-out: ED50 for 5FOA growth assays, PDE7A
How it was run: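 Fission yeast carrying an fbp1-ura4 reporter were pregrown to exponential phase at 30 °C in EMM with 0–2.5 mM cAMP (or 0.5/1.0 mM cGMP), then moved into 5FOA medium with 100 nl pinned compound (10 mM stocks). Growth was read as OD600 after 48 h at 30 °C and scored as composite Z scores.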

Cgs2-2 = assay: fbp1-lacZ β-galactosidase reporter assay, Cgs2-2 strain; type: cell-based, S. pombe; details: strain LWP98 (Cgs2-2)
Procedure: as §2, §4

PDE8A [4] = target: T2, PDE8A; assay: fbp1-lacZ β-galactosidase reporter assay, PDE8A strain; type: cell-based, murine; details: strain DDP13 (PDE8A)
Procedure: as §2, §4

PDE7B [5] = target: T3, PDE7B (Homo sapiens, UniProt Q9NP56); assay: in vitro enzyme assay, PDE7B catalytic domain from E. coli, hydrolysis of cAMP to AMP; type: biochemical; parameters: The PDE7B catalytic domain was expressed in and purified from E. coli; made in house; host or cells: E. coli; details: AC200 = [Compound] that doubles PDE activity; read-out: IC50 (or AC200), PDE7B
Procedure: The PDE7B catalytic domain was expressed in and purified from E. coli and tested for activity in an in vitro enzyme assay, measuring the hydrolysis of cAMP to AMP. Four dilutions of the enzyme preparation were tested at various compound concentrations (X axis). The percent of cAMP hydrolyzed is plotted on the Y axis.
Target sequence in this assay (Q9NP56 97-420 limits assumed, species assumed): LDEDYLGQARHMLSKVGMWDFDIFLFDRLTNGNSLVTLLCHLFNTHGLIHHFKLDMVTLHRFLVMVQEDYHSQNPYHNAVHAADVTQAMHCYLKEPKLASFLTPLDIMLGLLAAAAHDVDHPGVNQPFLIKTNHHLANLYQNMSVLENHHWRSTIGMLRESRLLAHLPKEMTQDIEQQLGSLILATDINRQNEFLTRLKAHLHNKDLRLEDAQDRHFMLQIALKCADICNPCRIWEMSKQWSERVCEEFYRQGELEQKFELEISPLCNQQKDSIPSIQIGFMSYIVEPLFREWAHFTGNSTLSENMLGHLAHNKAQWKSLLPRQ

PDE7B [6] = target: T3, PDE7B; assay: 5FOA growth assay in fission yeast strain expressing PDE7B; type: cell-based; parameters: targets used in the assays are full-length proteins (as opposed to simply the catalytic domain); expressed in transfected cells; host or cells: Schizosaccharomyces pombe; details: OD600 0.6; read-out: ED50 for 5FOA growth assays, PDE7B
Procedure: PDE inhibition allows growth in 5FOA medium as measured by optical density after 48 hours incubation at 30° C. Compound BC12 and six structural analogs were tested for growth stimulation.
Cells were pregrown in EMM medium [MP Biomedicals (Solon, Ohio), 3% glucose, filter-sterilized to avoid carmelization, which would introduce variability into the optical density of the medium] containing from 0 mM to 2.5 mM cAMP (or either 0.5 mM or 1.0 mM cGMP). This was to repress expression of the fbp1-ura4 reporter prior to exposure of cells to 5FOA medium. Cells were grown at 30° C. to exponential phase (approximately 10^7 cells/ml). Cells were collected by centrifugation and resuspended in 5FOA medium, and 25 μl were transferred to 384-well microtiter dishes (untreated, with flat clear bottoms) that had been pre-filled with 25 μl 5FOA medium and pre-pinned with 100 nl of compounds (stock solutions were generally 10 mM). Starting cell concentrations ranged from 0.5×10^5 to 4×10^5 cells/ml depending on the screening strain. […] Other positive control dishes contained 5 mM cAMP in the 5FOA medium for PDEs that lack appropriate control compounds. Cultures were grown for 48 hours at 30° C., sealed in an airtight container with moist paper towels to prevent evaporation. Optical densities (OD600) of cultures were measured using a microplate reader. Bioinformatic analysis of the results to determine composite Z scores was performed as previously described (1, 3).
Target sequence in this assay (Q9NP56 whole entry, species assumed, the tested form may be a part): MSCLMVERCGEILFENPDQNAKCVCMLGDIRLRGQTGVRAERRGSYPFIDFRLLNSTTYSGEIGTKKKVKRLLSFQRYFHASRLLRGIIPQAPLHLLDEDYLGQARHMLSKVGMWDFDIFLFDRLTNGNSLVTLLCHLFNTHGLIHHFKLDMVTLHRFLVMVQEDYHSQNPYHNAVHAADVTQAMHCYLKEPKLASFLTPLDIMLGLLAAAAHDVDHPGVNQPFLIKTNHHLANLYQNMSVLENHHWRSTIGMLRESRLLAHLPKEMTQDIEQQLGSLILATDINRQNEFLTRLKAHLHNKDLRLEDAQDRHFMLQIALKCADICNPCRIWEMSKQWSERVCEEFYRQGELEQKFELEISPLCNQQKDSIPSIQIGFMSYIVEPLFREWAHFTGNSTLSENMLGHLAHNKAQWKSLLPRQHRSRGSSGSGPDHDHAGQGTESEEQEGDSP

[7] = test system: PDE2A, PDE4A, PDE4B, Cgs2; assay: Parallel high throughput 5FOA growth screens of bioactive libraries; type: cell-based, murine PDEs; yeast Cgs2; details: 3,120 bioactive compounds, average 20 μM
Procedure: High throughput drug screens were carried out at the Broad Institute's Chemical Biology Program screening facility (Broad Institute, Cambridge, Mass.). Depending upon the strain, cultures were pregrown to exponential phase in EMM complete medium containing from 0.5 to 2.5 mM cAMP to repress fbp1-ura4 transcription. […] Starting cell concentrations ranged from 0.5×10^5 to 4×10^5 cells/ml depending on the screening strain. […] Other positive control dishes contained 5 mM cAMP in the 5FOA medium. Cultures were grown for 48 hours at 30° C., sealed in an airtight container with moist paper towels to prevent evaporation. Optical densities (OD600) of cultures were measured using a microplate reader. Bioinformatic analysis of the results to determine composite Z scores was performed as previously described^30, 31.

Cgs2 = target: T4, Cgs2 (Schizosaccharomyces pombe, UniProt P36599); assay: fbp1-lacZ β-galactosidase reporter assay, Cgs2 strain; type: cell-based, S. pombe; details: strain CHP861 (Cgs2)
T4 construct: expressing either the wild-type S. pombe Cgs2^+ PDE; endogenous in cells; host or cells: Schizosaccharomyces pombe strain CHP861
Procedure: as §2, §4

T4 sequence (P36599 whole entry): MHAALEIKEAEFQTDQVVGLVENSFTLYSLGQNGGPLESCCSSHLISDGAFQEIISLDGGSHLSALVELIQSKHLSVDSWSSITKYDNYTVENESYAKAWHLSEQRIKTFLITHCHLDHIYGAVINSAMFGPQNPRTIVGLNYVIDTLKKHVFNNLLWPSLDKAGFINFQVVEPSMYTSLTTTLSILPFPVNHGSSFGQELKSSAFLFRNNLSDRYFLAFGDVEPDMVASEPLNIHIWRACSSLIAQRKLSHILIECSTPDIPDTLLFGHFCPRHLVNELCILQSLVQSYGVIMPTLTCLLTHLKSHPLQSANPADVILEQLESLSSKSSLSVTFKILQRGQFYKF
Chain of PDE7A (Q13946 whole entry, the tested form may be a part): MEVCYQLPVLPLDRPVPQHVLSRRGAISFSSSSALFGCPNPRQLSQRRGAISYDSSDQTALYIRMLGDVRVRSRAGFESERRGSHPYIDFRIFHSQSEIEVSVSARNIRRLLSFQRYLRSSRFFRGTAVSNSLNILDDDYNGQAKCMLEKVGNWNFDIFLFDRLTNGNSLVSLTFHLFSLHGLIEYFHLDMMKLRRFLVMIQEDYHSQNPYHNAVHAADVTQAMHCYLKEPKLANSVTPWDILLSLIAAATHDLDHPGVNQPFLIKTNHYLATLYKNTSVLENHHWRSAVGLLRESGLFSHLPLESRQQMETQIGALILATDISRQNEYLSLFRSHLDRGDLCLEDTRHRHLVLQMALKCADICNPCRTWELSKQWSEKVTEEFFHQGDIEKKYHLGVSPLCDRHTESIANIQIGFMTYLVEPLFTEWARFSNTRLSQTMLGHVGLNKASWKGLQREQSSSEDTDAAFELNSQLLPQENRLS

For `CCCCCC[C@@H]([C@@H](C)O)n1cnc2c(N)ncnc21` (racemic) [EHNA], the “inhibition of PDE2A judged by cAMP levels” value (PDE2A [1]) was “partial inhibition”, the β-galactosidase activity (PDE2A [2]; 5 μM EHNA) was 473 ± 19 and the β-galactosidase activity (PDE2A [2]; 20 μM EHNA) was 197 ± 51. The β-galactosidase activity (PDE2A [2]; 200 μM EHNA) was 45 ± 3.

With `COc1ccc(C2CNC(=O)C2)cc1OC1CCCC1` (stereo not drawn) [Rolipram, reference compound] the “cAMP levels in PDE8A strain” value (PDE8A [3]) was “completely insensitive”, the TNF (U937 cells; 3 HOURS) was 3497 pg/mL and the “TNF alpha (EtoH = 100.0)” value (U937 cells; 3 HOURS) was 86.2. The “TNF, % EtOH cntrl” value (U937 cells; 3 HOURS) was 72.4%, the TNF (U937 cells; 20 HOURS) was 9362 pg/mL and the “TNF alpha (EtoH = 100.0)” value (U937 cells; 20 HOURS) was 86.3. For the same compound, the “TNF, % EtOH cntrl” value (U937 cells; 20 HOURS) was 68.4%, the EC50 (PDE7A) was > 200 µM and the β-galactosidase activity (Cgs2-2; 50 μM Rolipram) was 19 ± 9. The β-galactosidase activity (Cgs2-2; 100 μM Rolipram) was 20 ± 11, the β-galactosidase activity (PDE8A [4]; 50 μM Rolipram) was 253 ± 46 and the β-galactosidase activity (PDE8A [4]; 100 μM Rolipram) was 237 ± 67. For the same compound, the IC50 (PDE7B [5]) was > 2 µM, the EC50 (PDE7B [6]) was > 200 µM and the “hit in high throughput screens (promotes 5FOA^R growth), in words” value [7] was “only affected the PDE4A- and PDE4B-expressing strains”. For the same compound, the β-galactosidase activity (Cgs2; 50 μM Rolipram, specific activity per milligram of soluble protein, average ± SD) was 1807 ± 446 and the β-galactosidase activity (Cgs2; 100 μM Rolipram) was 1784 ± 429.
